Earlier results, collected in patent US11872266B2, “Rapid-acting insulin compositions” (Eli Lilly and Company, priority 2014, dated 2024).

Settings: on a molar basis

28^B-L-Lysine-29^B-L-proline human insulin [Insulin lispro]
Potency relative to human insulin: equipotent to human insulin
